From patent US20140064053A1, “NON-RESONANT TWO-PHOTON ABSORPTION MATERIAL, NON-RESONANT TWO-PHOTON ABSORPTION RECORDING MATERIAL, RECORDING MEDIUM, RECORDING/REPRODUCING METHOD AND NON-RESONANT TWO-PHOTON ABSORPTION COMPOUND” (FUJIFILM Corporation, priority 2011, published 2014)

Tests used:
[1] = Two-photon absorption cross-sectional area by the Z scanning method; assay type: physicochemical; conditions: measurement wavelength 405 nm; chloroform solution, about 1×10^−3 mol/l; 1 GM = 1 × 10^−50 cm^4 s molecule^−1 photon^−1
Protocol: The measurement of the two-photon absorption cross-sectional area of the synthesized compound was performed by the Z scanning method described in MANSOOR SHEIK-BAHAE et al., IEEE. Journal of Quantum Electronics, 1990, 26, 760. The Z scanning method is a method widely used as the measuring method of a non-linear optical constant, where in the vicinity of the focus of converged laser beam, a measurement sample is moved along the beam and the change in the quantity of transmitted light is recorded. Since the power density of incident light changes depending upon the position of the sample, when non-linear absorption is present, the quantity of transmitted light attenuates in the vicinity of the focus. The two-photon absorption cross-sectional area was computed by fitting the change in the quantity of transmitted light to a theoretical curve predicted from the incident light intensity, the light converging spot size, the sample thickness and the sample concentration. As the light source for the measurement of two-photon absorption cross-sectional area, a Ti:sapphire pulsed laser (pulse width: 100 fs, repetition: 80 MHz, average output: 1 W, peak power: 100 kW) obtained by combining a […] and a light parametric amplifier was used. As the sample for the measurement of two-photon absorption cross-sectional area, a solution obtained by dissolving the compound in chloroform in a concentration of about 1×10^−3 mol/l was used.
The two-photon absorption cross-sectional areas of Compounds D-1, D-2, D-6 and D-29 of the present invention and Comparative Compound R-1 [recited as Compound D-1 in Patent Document 5 (JP-A-2010-108588)] are shown in Table 1 below.

[2] = Evaluation of solubility of two-photon absorption compound in dichloromethane; assay type: physicochemical; conditions: invention compounds compared with Comparative Compound R-1
Protocol: Compounds D-1, D-2, D-6 and D-29 of the present invention and Comparative Compound R-1 for dichloromethane were evaluated for the solubility (room temperature).

SMILES | Two-Photon Absorption Cross-Sectional Area [1] [GM] | Solubility (in words) [2]
CCCCC(CC)COc1ccc(C(=O)c2ccc(-c3ccc(-c4ccc(-c5ccc(C#N)cc5)cc4)cc3)cc2)cc1 [Compound D-1] | 900 | high solubility
CCCCC(CC)COc1ccc(C(=O)c2ccc(-c3ccc(-c4ccc(-c5ccc(C#N)cc5)c(OC)c4)cc3OC)cc2)cc1 [Compound D-6] | 1140 | high solubility
COCCOCCOCCOCCOCCOc1ccc(C(=O)c2ccc(-c3ccc(-c4ccc(-c5ccc(C#N)cc5)cc4)cc3)cc2)cc1 [Compound D-2] | 860 | high solubility

Results, then the compound that gave them:

Two-Photon Absorption Cross-Sectional Area [1] [GM] | Solubility (in words) [2] | SMILES
1700 | low | N#Cc1ccc(-c2ccc(-c3ccc(-c4ccc(C(=O)c5ccccc5)cc4)cc3)cc2)cc1 [Compound R-1, reference compound]
2000 | high solubility | COc1cc(-c2ccc(-c3ccc(C(=O)c4ccc(OCCOCCOC(C)=O)c(OCCOCCOC(C)=O)c4)cc3)c(OC)c2)ccc1-c1ccc(C(=O)c2ccc(OCCOCCOC(C)=O)c(OCCOCCOC(C)=O)c2)cc1 [Compound D-29]
